Measured values taken from patent US9868766B2, “Peptides as oxytocin agonists” (Hoffmann-La Roche Inc., priority 2012, dated 2018).
Positions of bridges follow the written chain, without caps; N, C: chain ends. Non-standard residues stand in square brackets, D forms with d. Residues, ends and D or L forms follow the SMILES beside them. Phe(4-NH2) = Nc1ccc(C[C@H](N)C(=O)O)cc1; Cha = N[C@@H](CC1CCCCC1)C(=O)O; Sar = CNCC(=O)O

Assays:
Assay type in all cases: cell-based
[1] = molecular target: T1, human Oxytocin (OTR) receptor (Homo sapiens, UniProt P30559); assay: Calcium flux assay (FLIPR), agonist mode, CHO cells expressing human OTR; conditions: for EC50: CHO cells stably expressing human OTR, calcium flux, read-out: hOT EC50; for hOT efficacy (%) / Emax: maximum response normalized to endogenous full agonist = 100%; for Emax: CHO, read-out: hOT efficacy (%)
T1 construct: expressed in transfected cells
T1 sequence (P30559 1-389): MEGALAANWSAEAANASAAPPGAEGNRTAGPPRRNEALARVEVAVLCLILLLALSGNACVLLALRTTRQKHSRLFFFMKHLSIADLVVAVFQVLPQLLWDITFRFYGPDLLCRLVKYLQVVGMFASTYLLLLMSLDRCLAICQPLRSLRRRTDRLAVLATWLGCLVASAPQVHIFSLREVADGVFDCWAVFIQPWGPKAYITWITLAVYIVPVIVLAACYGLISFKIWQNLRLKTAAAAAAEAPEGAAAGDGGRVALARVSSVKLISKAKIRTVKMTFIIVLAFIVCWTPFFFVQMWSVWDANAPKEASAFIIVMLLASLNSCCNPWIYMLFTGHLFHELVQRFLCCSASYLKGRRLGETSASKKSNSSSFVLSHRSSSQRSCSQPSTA
Procedure, shortened: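 Monoclonal CHO cells stably expressing the receptor were loaded with 2 μM Fluo-4-AM in HBSS with 20 mM HEPES (pH 7.3) and 2.5 mM probenecid. Compound was added 10 s into reading and fluorescence followed for 5 min.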

[2] = molecular target: T2, human V1a receptor (Homo sapiens, UniProt P37288); assay: Calcium flux assay (FLIPR), agonist mode, CHO cells expressing human V1a; conditions: CHO cells stably expressing human V1a; calcium flux; read-out: hV1a EC50
T2 construct: expressed in transfected cells
From the text: (§1) Chines Hamster Ovary (CHO) cells were transfected with expression plasmids encoding either the human V1a, the human Oxytocin (OTR) or the humanV2 receptor, the later in combination with the chimeric Gqs5 G protein to redirect the signal to Calcium flux. Stable cells were cloned by limiting dilution to yield monoclonal cell lines expressing either human V1a, human V2+Gqs5 or human OTR receptors and selected based on functional responses detected on a fluorometric imaging plate reader (FLIPR) detecting Calcium flux in the cell after receptor activation. The stable cell lines were grown in F-12 K Nutrient Mixture (Kaighns Modification), containing 10% foetal bovine serum (FBS), 1% penicillin-streptomycin, 1% L-glutamate, 200 ug/ml Geneticin at 37° C. in a 10% CO2 incubator at 95% humidity.
(§2) On the afternoon before the assay, cells were plated at a density of 50,000 cells/well into black 96 well plates with clear bottoms to allow cell inspection and fluorescence measurements from the bottom of each well. The density of cells was sufficient to yield a confluent monolayer the next day. Hanks balanced salt solution, without phenol red, containing 20 mM HEPES (pH 7.3) and 2.5 mM probenecid (assay buffer) was prepared fresh for each experiment. Compound dilutions were made using a Beckman Biomek 2000 laboratory automation workstation, in assay buffer containing 1% DMSO. The dye-loading buffer consisted of a final concentration of 2 μM Fluo-4-AM (dissolved in DMSO and pluronic acid) in assay buffer. The existing culture media was removed from the wells and 100 μl of the dye-loading buffer was added to each well and incubated for approximately 60 min at 37° C. in a 5% CO2 incubator at 95% humidity. Once dye-loaded, the cells were washed thoroughly on an Embla cell washer with the assay buffer to remove any unincorporated dye. Exactly 100 μl assay buffer was left in each well.
(§3) Each 96 well plate containing dye-loaded cells was placed into the FLIPR machine and the laser intensity set to a suitable level to detect low basal fluorescence. To test compounds as agonists, 25 μl diluted compound was added to the plate 10 seconds into the fluorescent measurements and fluorescent response was recorded for 5 minutes. The fluorescence data was normalized to the endogenous full agonist dose-response set at 100% for the maximum response and 0% for the minimum. Each agonist concentration-response curve was constructed using a four parameter logistic equation with Microsoft Excel XLFit as follows: Y=Minimum+((Maximum−Minimum)/(1+10^(Log EC50-X)nH)), where y is the % normalized fluorescence, minimum is the minimum y, maximum is the maximum y, log EC50 is the log10 concentration which produces 50% of the maximum induced fluorescence, x is the log10 of the concentration of the agonist compound and H is the slope of the curve (the Hill Coefficient). The maximum value gives the efficacy of the agonist test compound in percentage. The concentration of agonist that produced a half-maximal response is represented by the EC50 value, the logarithm of which yielded the pEC50 value.

[3] = molecular target: T3, human V2 receptor (Homo sapiens, UniProt P30518); assay: Calcium flux assay (FLIPR), agonist mode, CHO cells expressing human V2 + Gqs5; conditions: for EC50: CHO cells stably expressing human V2 + chimeric Gqs5, calcium flux, read-out: hV2 EC50; for Emax: CHO, maximum response normalized to endogenous full agonist = 100%, read-out: hV2 efficacy (%)
T3 construct: expressed in transfected cells
From the text: as §1, §2, §3

T3 sequence (P30518 whole entry): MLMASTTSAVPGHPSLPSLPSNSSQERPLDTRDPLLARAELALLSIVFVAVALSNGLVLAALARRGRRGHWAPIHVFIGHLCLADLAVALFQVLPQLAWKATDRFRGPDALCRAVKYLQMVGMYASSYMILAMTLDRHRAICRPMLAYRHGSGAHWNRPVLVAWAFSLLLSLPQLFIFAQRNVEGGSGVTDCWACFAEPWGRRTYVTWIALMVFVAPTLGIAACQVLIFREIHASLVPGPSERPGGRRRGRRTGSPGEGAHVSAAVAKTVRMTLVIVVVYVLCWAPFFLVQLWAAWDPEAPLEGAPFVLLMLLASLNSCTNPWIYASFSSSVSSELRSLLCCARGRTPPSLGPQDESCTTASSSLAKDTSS
T2 sequence (P37288 whole entry): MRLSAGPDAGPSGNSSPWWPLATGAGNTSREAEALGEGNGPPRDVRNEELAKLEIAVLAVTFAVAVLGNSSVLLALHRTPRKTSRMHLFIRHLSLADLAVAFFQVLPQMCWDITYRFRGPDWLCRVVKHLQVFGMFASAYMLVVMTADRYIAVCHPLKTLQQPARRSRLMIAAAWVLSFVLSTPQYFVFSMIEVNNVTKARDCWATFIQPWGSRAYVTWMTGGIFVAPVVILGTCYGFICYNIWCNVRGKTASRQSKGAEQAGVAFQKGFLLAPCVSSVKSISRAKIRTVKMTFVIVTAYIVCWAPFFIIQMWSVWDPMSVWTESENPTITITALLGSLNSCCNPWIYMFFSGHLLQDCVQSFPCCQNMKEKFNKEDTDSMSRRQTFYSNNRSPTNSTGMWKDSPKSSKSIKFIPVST

| SMILES | EC50 [1] [µM] | hOT efficacy (%) [1] [%] | EC50 [2] [µM] | EC50 [3] [µM] | Emax [3] [%] | Emax [1] [%] |
| --- | --- | --- | --- | --- | --- | --- |
| CC[C@H](C)[C@@H]1NC(=O)[C@H](Cc2ccc(N)cc2)NC(=O)CNC(=O)CC[C@@H](C(=O)N(C)CC(=O)N[C@@H](CC(C)C)C(=O)NCC(N)=O)NC(=O)[C@H](CC(N)=O)NC(=O)[C@H](CCC(N)=O)NC1=O [Example 2] (G[Phe(4-NH2)]IQNE[Sar]LG-NH2; lactam N-6) | 0.009 | 112 | > 27 | 7.91 | 74 | – |
| CC[C@H](C)[C@@H]1NC(=O)[C@H](Cc2ccc(O)cc2)NC(=O)CNC(=O)CC[C@@H](C(=O)N(C)CC(=O)N[C@@H](CCC(N)=O)C(=O)NCC(N)=O)NC(=O)[C@H](CC(N)=O)NC(=O)[C@H](CCC(N)=O)NC1=O [Example 31] (GYIQNE[Sar]QG-NH2; lactam N-6) | 0.009 | – | > 10 | 2.71 | 91 | 131 |
| CC[C@H](C)[C@@H]1NC(=O)[C@H](Cc2ccc(O)cc2)NC(=O)CNC(=O)CC[C@@H](C(=O)N(C)CC(=O)N[C@@H](CCC(=O)O)C(=O)NCC(N)=O)NC(=O)[C@H](CC(N)=O)NC(=O)[C@H](CCC(N)=O)NC1=O [Example 29] (GYIQNE[Sar]EG-NH2; lactam N-6) | 0.032 | 130 | > 10 | 10.7 | 39 | – |

Compounds with a lower EC50 [1], results first:

| EC50 [1] [µM] | hOT efficacy (%) [1] [%] | EC50 [2] [µM] | EC50 [3] [µM] | Emax [3] [%] | Emax [1] [%] | SMILES |
| --- | --- | --- | --- | --- | --- | --- |
| 0.005 | 122 | > 10 | 4.17 | 87 | – | CC[C@H](C)[C@@H]1NC(=O)[C@H](Cc2ccc(O)cc2)NC(=O)CNC(=O)CC[C@@H](C(=O)N(C)CC(=O)N[C@@H](CO)C(=O)NCC(N)=O)NC(=O)[C@H](CC(N)=O)NC(=O)[C@H](CCC(N)=O)NC1=O [Example 28] (GYIQNE[Sar]SG-NH2; lactam N-6) |
| 0.0004 | – | > 27 | 3.71 | 111 | 122 | CC[C@H](C)[C@@H]1NC(=O)[C@H](Cc2ccc(O)cc2)NC(=O)CNC(=O)CC[C@@H](C(=O)N(C)CC(=O)N[C@@H](CC2CCCCC2)C(=O)NCC(N)=O)NC(=O)[C@H](CC(N)=O)NC(=O)[C@H](CCC(N)=O)NC1=O [Example 39] (GYIQNE[Sar][Cha]G-NH2; lactam N-6) |
